Source: patent publication US20020055528A1, “Artemisinin analogs having antimalarial, antiproliferative, and antitumor activities and chemoselective methods of making the same” (priority 1999, published 2002)
Read-outs that look alike come from different tables or passages of the source.

Legend:
OVCAR-4 = test: NCI 60 cell line screen (SRB), Ovarian Cancer; type: cell-based
NCI/ADR-RES = test: NCI 60 cell line screen (SRB), Breast Cancer; type: cell-based
A498 = test: NCI 60 cell line screen (SRB), Renal Cancer; type: cell-based
MOLT-4 = test system: MOLT-4
Experimental: The screening assay is performed on 96-well microtitre plates. Relatively high initial inoculation densities are used, in order to permit measurement of “time-zero” values and to enhance the screen's ability to detect and provide some differentiation between antiproliferative and cytotoxic response parameters. […] The inoculated microtitre plates are pre-incubated for 24 hours at 37θC prior to drug additions. The five drug dilutions tested routinely range from 10^−4 to 10^−8 molar. Higher or lower concentration ranges may be selected on a nonroutine basis if appropriate solubility and/or prior biological information or other screening data so dictate. Duplicate wells are prepared for all concentrations, (concentration is often denoted by placing brackets around a number); “time-zero” and “no drug” controls are also provided for each test. The minimum amount of compound required for a one-time evaluation in the routine screen can be calculated from the knowledge that each test requires a total of approximately 40 ml (0.04 liter) of cell culture medium containing the highest desired drug concentration. Thus, the amount (grams) of sample required (assuming an upper test concentration limit of 10^−4 M) is: molecular weight of compound×[…]. After a 48 hour incubation (37θC) with the test compound, the cells are fixed in situ to the bottoms of the microtitre wells by addition of 50 ul of either 50% trichloroacetic acid (for adherent cell lines) or 80% trichloroacetic acid (for settled cell suspension lines), followed by incubation for 60 minutes at 4θC. The cellular protein in each well is assayed using a sulforhodamine B (SRB) stain procedure. Briefly, after discarding the supernatants, the microtitre plates are washed 5 times with deionized water and air-dried. One hundred microliters of SRB solution (0.4% w/v in 1% acetic acid) is added to each microtitre well and incubated for 10 minutes at room temperature. Unbound SRB is removed by washing 5 times with 1 % acetic acid. The plates are air-dried, the bound stain is solubilized with Tris buffer, and the optical densities read at 515 nm. SRB is a bright pink anionic dye which, in dilute acetic acid, binds electrostatically to the basic amino acids of TCA-fixed cells. Cryopreserved master stocks of all the lines are maintained, and cultures used for screening are replaced from the master stock after no more than twenty passages in the screening laboratory. The cell line panel consists of 60 lines, organized into nine, disease-related subpanels including leukemia, non-small-cell lung cancer, colon, CNS, melanoma, ovarian, renal, prostate and breast cancers.
The response parameters G150 and LC50 are interpolated values representing the concentrations at which the percentage growth (PG) is +50 and −50, respectively:
GI50 is the concentration for which the PG=+50. At this value the increase from time tzero, in the number or mass of cells in the test well is only 50% as much as the corresponding increase in the control well during this period of the experiment, see Table II. A drug effect of this intensity is interpreted as primary growth inhibition.
TGI is the concentration for which PG=0. At this value the number or mass of cells in the well at the end of the experiment equals the number or mass of cells in the well at time tzero, see Table III. A drug effect of this intensity is regarded as cytostasis.
LC50 is the concentration for which the PG=−50. At this value, the number or mass of cells in the test well at the end of the experiment is half that at time tzero, see Table IV. This is interpreted as cytotoxicity.

RXF 393 = test: NCI 60 cell line screen (SRB), Renal Cancer; type: cell-based
NCI-H23 = test: NCI 60 cell line screen (SRB), Non-Small Cell Lung Cancer; type: cell-based
BT-549 = test: NCI 60 cell line screen (SRB), Breast Cancer; type: cell-based
[1] = test system: MB231/ATCC (second line of the wrapped label, with values of its own); test: NCI 60 cell line screen (SRB), Breast Cancer; type: cell-based
MDA-MB-435 = test: NCI 60 cell line screen (SRB), Breast Cancer; type: cell-based
CAKI-1 = test: NCI 60 cell line screen (SRB), Renal Cancer; type: cell-based
U251 = test: NCI 60 cell line screen (SRB), CNS Cancer; type: cell-based
DU-145 = test: NCI 60 cell line screen (SRB), Prostate Cancer; type: cell-based
SNB-19 = test: NCI 60 cell line screen (SRB), CNS Cancer; type: cell-based
HCT-15 = test: NCI 60 cell line screen (SRB), Colon Cancer; type: cell-based
MDA-N = test: NCI 60 cell line screen (SRB), Breast Cancer; type: cell-based
786-0 = test: NCI 60 cell line screen (SRB), Renal Cancer; type: cell-based
RPMI-8226 = test: NCI 60 cell line screen (SRB), Leukemia; type: cell-based; details: Table IV (LC50, PG=−50)
OVCAR-3 = test: NCI 60 cell line screen (SRB), Ovarian Cancer; type: cell-based; details: PG=0
KM12 = test: NCI 60 cell line screen (SRB), Colon Cancer; type: cell-based
MCF7 = test: NCI 60 cell line screen (SRB), Breast Cancer; type: cell-based

CC1=C(C=Cc2cccc(C=CC3=C(C)C4CCC(C)C5CCC6(C)OOC45C(O3)O6)c2)OC2OC3(C)CCC4C(C)CCC1C24OO3 (stereo not shown) [VII-h] was tested, and the Log10GI50 (OVCAR-4; OVCAR-4, PG=+50) was −7.51 log10M, the Log10TGI (OVCAR-4; OVCAR−4, PG=0) was −6.31 log10M and the Log10GI50 (OVCAR-4; Table IV (LC50, PG=−50), OVCAR−4) was >−4.00 log10M. The Log10TGI (NCI/ADR-RES; PG=0) was −4.40 log10M, the Log10GI50 (NCI/ADR-RES; PG=+50) was −5.76 log10M and the Log10GI50 (NCI/ADR-RES; Table IV (LC50, PG=−50)) was >−4.00 log10M. For the same compound, the Log10TGI (A498; PG=0) was >−4.00 log10M, the Log10GI50 (A498; PG=+50) was −6.29 log10M and the Log10GI50 (A498; Table IV (LC50, PG=−50)) was >−4.00 log10M. The “drug concentration for cytotoxicity (percentage growth −50)” value (MOLT-4) was “greater than 10^−4 M”, the “drug concentration for primary growth inhibition (percentage growth +50)” value (MOLT-4; MOLT-4, FIGS. 6a-6e) was “greater than 10^−8 molar” and the Log10GI50 (MOLT-4; MOLT-4, PG=+50) was <−8.00 log10M. The Log10TGI (MOLT-4; MOLT−4, PG=0) was <−8.00 log10M, the Log10GI50 (MOLT-4; Table IV (LC50, PG=−50), MOLT−4) was >−4.00 log10M and the Log10TGI (RXF 393; PG=0) was >−4.00 log10M. For the same compound, the Log10GI50 (RXF 393; PG=+50) was −6.48 log10M, the Log10GI50 (RXF 393; Table IV (LC50, PG=−50)) was >−4.00 log10M and the Log10TGI (NCI-H23; PG=0) was >−4.00 log10M. The “log10 GI50 or LC50 (see conditions)” value (NCI-H23; PG=+50) was −6.35 log10M, the “log10 GI50 or LC50 (see conditions)” value (NCI-H23; Table IV (LC50, PG=−50)) was >−4.00 log10M and the Log10TGI (BT-549; PG=0) was −7.10 log10M. For the same compound, the Log10GI50 (BT-549; PG=+50) was <−8.00 log10M, the Log10GI50 (BT-549; Table IV (LC50, PG=−50)) was >−4.00 log10M and the Log10TGI ([1]; PG=0) was −5.72 log10M. For the same compound, the Log10GI50 ([1]; PG=+50) was −7.31 log10M, the Log10GI50 ([1]; Table IV (LC50, PG=−50)) was >−4.00 log10M and the Log10TGI (MDA-MB-435; MDA-MB-435, PG=0) was >−4.00 log10M. The Log10GI50 (MDA-MB-435; MDA-MB−435, PG=+50) was −7.29 log10M, the Log10GI50 (MDA-MB-435; Table IV (LC50, PG=−50), MDA-MB-435) was >−4.00 log10M and the Log10TGI (CAKI-1; PG=0) was >−4.00 log10M. The Log10GI50 (CAKI-1; PG=+50) was −6.28 log10M, the Log10GI50 (CAKI-1; Table IV (LC50, PG=−50)) was >−4.00 log10M and the Log10TGI (U251; PG=0) was >−4.00 log10M. For the same compound, the Log10GI50 (U251; PG=+50) was −7.26 log10M, the Log10GI50 (U251; Table IV (LC50, PG=−50)) was >−4.00 log10M and the Log10TGI (DU-145; PG=0) was >−4.00 log10M. For the same compound, the Log10GI50 (DU-145; PG=+50) was −6.16 log10M, the Log10GI50 (DU-145; Table IV (LC50, PG=−50)) was >−4.00 log10M and the Log10TGI (SNB-19; PG=0) was >−4.00 log10M. The “Log10GI50 or Log10LC50 (see condition)” value (SNB-19; PG=+50) was −7.09 log10M, the “Log10GI50 or Log10LC50 (see condition)” value (SNB-19; Table IV (LC50, PG=−50)) was >−4.00 log10M and the Log10TGI (HCT-15; PG=0) was >−4.00 log10M. For the same compound, the “log10 GI50 (PG=+50) or LC50 (PG=−50), per row condition” value (HCT-15; PG=+50) was −7.39 log10M, the “log10 GI50 (PG=+50) or LC50 (PG=−50), per row condition” value (HCT-15; Table IV (LC50, PG=−50)) was >−4.00 log10M and the Log10TGI (MDA-N; PG=0) was −5.42 log10M. For the same compound, the Log10GI50 (MDA-N; PG=+50) was −7.33 log10M, the Log10GI50 (MDA-N; Table IV (LC50, PG=−50)) was >−4.00 log10M and the Log10TGI (786-0; PG=0) was >−4.00 log10M. For the same compound, the Log10GI50 (786-0; PG=+50) was −7.02 log10M, the Log10GI50 (786-0; Table IV (LC50, PG=−50)) was >−4.00 log10M and the Log10GI50 (RPMI-8226) was >−4.00 log10M. For the same compound, the Log10TGI (OVCAR-3) was >−4.00 log10M, the Log10TGI (KM12; PG=0) was >−4.00 log10M and the Log10GI50 (KM12; PG=+50) was −7.81 log10M. The Log10GI50 (KM12; Table IV (LC50, PG=−50)) was >−4.00 log10M, the Log10TGI (MCF7; PG=0) was −4.31 log10M and the Log10GI50 (MCF7; PG=+50) was −7.33 log10M. For the same compound, the Log10GI50 (MCF7; Table IV (LC50, PG=−50)) was >−4.00 log10M.
